Data: PubChem BioAssay (NCI)
“And” between values parts separate entries of the source, which are not always exact repeats. Identical values can stand only once.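 Briefly, cells in 96-well plates were exposed to five compound concentrations for 48 h, and endpoints were estimated by linear interpolation. Here, GI50 denotes the concentration required for 50% inhibition of growth. TGI: total growth inhibition.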 *1 amine or outer side, *2 acyl side, *3 side chain or, on linkers, in order; H or OH if unused. Where a SMILES comes first, the peptide text is derived from it. Bridges are numbered along the chain shown (N, C = ends). [ ]: non-standard residue; d: D form. The star is where a group is joined. Phe(3-Me) = Cc1cccc(C[C@H](N)C(=O)O)c1; NH(4-Cl-2-F-phenyl) = Fc1cc(Cl)ccc1N*; Pro(4R-Me) = C[C@H]1CN[C@H](C(=O)O)C1; Hyp = O=C(O)[C@@H]1C[C@@H](O)CN1; aThr = C[C@H](O)[C@H](N)C(=O)O; Pip = O=C(O)[C@@H]1CCCCN1; CO = O=C([*:1])[*:2]

Test system: MDA-MB-468 breast
Assay: NCI-60 cell line screen, 48 h

Compound | GI50 | TGI
Cc1nc(NC(=S)Nc2ccc(F)cc2)sc1C(=O)NNC(=S)Nc1ccc(F)cc1 | 2220 nM | 9.53 µM
CCc1nc2ccc(Cc3ccc(C(=O)NO)cc3)cc2c(=O)n1CCc1ccccc1 | 740 nM | 2.97 µM
O=C(O)c1ccc(NS(=O)(=O)c2cccc3cccnc23)cc1 | > 100000 nM | > 100 µM
Cn1c2ccccc2c2nnc(N/N=C/c3ccccn3)nc21 | 293 nM | –
COc1ccc(C2c3cc4c(cc3OC(N3CCOCC3)C2C)OCO4)c(OC)c1 (configuration not stated) | 7180 nM | 32 µM
O=C(N/N=C/c1ccc(O)cc1O)c1ccc(Nc2ccnc(C(F)(F)F)c2)cc1 | 15200 nM | > 100 µM
COc1cccc(/C=C/C(=O)c2cc3c(N)c(C(=O)Nc4cccc(Cl)c4C)sc3nc2C)c1 | 778 nM | 1.82 µM
COc1ccc(C2=C(c3cn(C)c4ccccc34)C(=O)NC2=O)cc1OC | 5860 nM | > 25 µM
C[C@@H]1CCN(C(=O)CC#N)C[C@@H]1N(C)c1ncnc2[nH]ccc12 | > 100000 nM | > 100 µM
CCC(C)/C=C(C)/C=C/C(=O)c1c(O)c(-c2ccc(O)cc2)c[nH]c1=O (configuration not stated) | 1870 nM | 7.76 µM
O=C(Nc1ccc(Nc2ccncc2)cc1)c1ccc(Nc2ccnc3ccc([N+](=O)[O-])cc23)cc1 | > 100000 nM | > 100 µM
Cc1ccc(C(=O)N/N=C/c2cccc(Oc3ccccc3)c2)cn1 | 4430 nM | > 34.9 µM
O=c1[nH]nc2c3c(cccc13)NC(CN1Cc3ccccc3C1)=N2 | 7920 nM | > 100 µM
O=C1CNc2cc(N3CCN(c4cccc(C(F)(F)F)c4)CC3)ccc2N1 | 4920 nM | 43.6 µM
O=C1C(Cl)=C(N2CCOCC2)C(=O)c2ccccc21 | 1440 nM | 2.94 µM
COc1ccc(Cn2cc3c(c2-c2cc(OC)c(OC)c(OC)c2)CCc2c(CN4CCCC4)noc2-3)cc1 | 280 nM | 0.966 µM
Nc1ncc(-c2ccc(C(F)(F)F)cc2)c(NC2CCCCCC2)n1 | 4150 nM | > 100 µM
O=C(c1cc(-c2cc3c(cc2C(=O)N2Cc4ccccc4C[C@H]2CN2CCOCC2)OCO3)n2c1CCCC2)N(c1ccccc1)c1ccc(O)cc1 | 3070 nM | 96.2 µM
COC[C@H]1OC(=O)c2coc3c2[C@@]1(C)C1=C(C3=O)[C@@H]2CCC(=O)[C@@]2(C)C[C@H]1OC(C)=O | 421 nM | 4.62 µM
CSc1ccc(/C(=N/N=C(N)N)c2ccc(F)cc2)cc1 | 398 nM | 2.13 µM
CN(C)CC#Cc1cccc(C(=O)c2cnn(-c3ccc(F)cc3)c2N)c1 | 13300 nM | > 25 µM
Cc1c(CN2CCC(Nc3ncnc4sc(CC(F)(F)F)cc34)CC2)ccc2c1cc(C#N)n2Cc1cn[nH]c1 | 842 nM and 781 nM | 3.82 µM and 6.25 µM
O=C(NNc1nc2cc(F)c(F)cc2n2c(CN3CC4CNCC4C3)ccc12)c1ncccn1 (configuration not stated) | 2040 nM | 9.82 µM
CN1CCN(Cc2ccc(NC(=O)c3[nH]ncc3Nc3ncnc4c3CCC4)cc2)CC1 | 2000 nM | 5.84 µM

Compound | GI50 | TGI
COc1ccc(C(=O)c2cc(OC)c(OC)c(OC)c2)cc1O | 239 nM | 0.779 µM
CCN(CC)CCCC(C)Nc1cnc(C(=O)Nc2cc(F)cc3cccnc23)cn1 (configuration not stated) | 2830 nM and 327 nM | –
COc1ccc(/C=C(\C#N)c2cc(OC)c3c(c2)OCO3)cc1 | 17.3 nM | 0.15 µM
CC1(C)N=C(N)N=C(N)N1c1cccc(CCCCc2ccc(S(=O)(=O)F)cc2Cl)c1 | 2130 nM | 18.8 µM
Cc1nn2c(/C=C3/C(=O)Nc4ccc(Cl)cc43)c(-c3ccccc3)nc2s1 | 3470 nM | 14.7 µM
C#CC[C@H](c1nc2cc(Cl)ccc2c(=O)n1Nc1ccccc1)N(CCCN)C(=O)c1cccc(Cl)c1F | 42.1 nM | 0.755 µM
N#CSCC1CC(O)(c2ccccc2)C(c2ccccc2)C(c2ccc(F)cc2)O1 (configuration not stated) | 3510 nM | 13.1 µM
Cc1c(Cl)cccc1NC(=O)c1sc2nc3c(cc2c1N)CCCCCC3 | 130 nM | 19.9 µM
CCc1ccc(CCC(=O)Nc2ncc(Cc3ccccc3)s2)o1 | 1550 nM | > 100 µM
Cc1cc2c(C(N)=O)cccc2n1-c1nc2c(c(NCc3ccccc3)n1)CCCN2 | 223 nM | 0.477 µM
O=C1Nc2cc(OC(F)(F)F)ccc2Oc2ccc(-c3ccnc(N4CCNCC4)c3)cc21 | 394 nM | 1.46 µM
COc1cc(-c2cc(-c3nc4ccccc4[nH]3)[nH]n2)cc(OC)c1OC | 935 nM | 16.6 µM
O=C(Nc1ccncc1)C(=O)c1cn(S(=O)(=O)c2ccccc2F)c2ccccc12 | 1510 nM | 9.81 µM
Cc1nc(Nc2ccc(F)c(Cl)c2)sc1C(=O)O | 1200 nM | 3.79 µM
c1cncc(CNc2ccccc2-c2nnc(Nc3ccc4c(c3)OCCO4)o2)c1 | 218 nM | 0.821 µM
Cc1cccc(C[C@H](NC(=O)Nc2ccc(Cl)cc2F)C(=O)N[C@@H]2C(=O)N3C[C@H](O)C[C@H]3C(=O)N3CCCC[C@H]3C(=O)N[C@@H](C)C(=O)N3C[C@H](C)C[C@H]3C(=O)O[C@H]2C)c1 ({NH(4-Cl-2-F-phenyl)-CO}-[Phe(3-Me)][aThr][Hyp][Pip]A[Pro(4R-Me)]; ester 2-C) | 253 nM | 1.03 µM
Cc1ccc(NS(=O)(=O)c2cc(C)ccc2C)cc1 | 1420 nM | 7.28 µM
COc1ccc(C(=O)/C=C/c2cc(C(=O)c3cc(OC)c(OC)c(OC)c3)ccc2OC)cc1 | 3030 nM | > 100 µM
O=C(CNC(=O)c1cccc2ccccc12)Nc1ccccc1Oc1ccccc1 | 325 nM | 5.9 µM
CO/N=C1/NC(=O)/C(=C/c2ccc3ncccc3c2)S1 | 4910 nM | > 25 µM
O=[N+]([O-])c1cc(Br)cc2c1[nH]c1ccc(Br)cc12 | 7520 nM | 79.7 µM
CCOc1cc2ncc(C#N)c(Nc3ccc(F)c(Cl)c3)c2cc1NC(=O)/C=C/CN(C)C | 2.38 nM | 0.0351 µM
CCS(=O)(=O)c1ccc(OC)c(Nc2nccc(N(C)c3ccc4c(C)[nH]nc4c3)n2)c1 | 3480 nM | 9.32 µM
